Columns and labels:
[1] = system: BaF3; assay: cells; details: Mus musculus, BaF3, 72 h
[2] = Induction of apoptosis in mouse BaF3 cells harboring EGFR 19del/T790M/C797S mutant assessed as early apoptotic cells at 100 nM incubated for 48 hrs by Annexin V-FITC/PI staining based flow cytometric analysis (reference value: 0.46 %); assay type: functional
[3] = system: BaF3; assay: Antitumor activity against mouse BaF3 cells harboring 19del/T790M/C797S mutant implanted in female BALB/c nu/nu mouse assessed as tumor growth inhibition at 20 mg/kg, po administered once daily for 9 days relative to control; assay type: functional; details: BaF3, 216 h, time 9 day, read-out: TGI
[4] = Half-life in male SPF Sprague-Dawley rat at 10 mg/kg, po measured after 24 hrs by LC-MS/MS analysis; assay type: ADME, organism-based; details: in vivo
[5] = Induction of apoptosis in mouse BaF3 cells harboring EGFR 19del/T790M/C797S mutant assessed as late apoptotic cells at 100 nM incubated for 48 hrs by Annexin V-FITC/PI staining based flow cytometric analysis (reference value: 2.29 %); assay type: functional
[6] = molecular target: Epidermal growth factor receptor (Mus musculus) (UniProt Q01279); assay: Inhibition of EGFR downstream signaling in mouse BaF3 cells harboring EGFR 19del/T790M/C797S mutant assessed as reduction in phosphorylated ERK level preincubated for 2 hrs followed by EGF stimulation and measured after 15 mins by Western blot analysis; assay type: cell-based; details: dose 1-1000 nM, time 135.0 min
[7] = molecular target: Epidermal growth factor receptor (Mus musculus) (UniProt Q01279); assay: Inhibition of EGFR downstream signaling in mouse BaF3 cells harboring EGFR L858R/T790M/C797S mutant assessed as reduction in phosphorylated ERK level preincubated for 2 hrs followed by EGF stimulation and measured after 15 mins by Western blot analysis; assay type: cell-based; details: dose 1-1000 nM, time 135.0 min
[8] = system: A-431; assay: cells; details: Homo sapiens, A-431, 72 h
Description: Antiproliferative activity against human A-431 cells harboring wildtype EGFR assessed as inhibition of cell proliferation measured after 72 hrs by SRB assay

[9] = MRT (0 to t) in male SPF Sprague-Dawley rat at 10 mg/kg, po measured after 24 hrs by LC-MS/MS analysis; assay type: ADME, organism-based; details: in vivo
[10] = AUC (0 to t) in male SPF Sprague-Dawley rat at 10 mg/kg, po measured after 24 hrs by LC-MS/MS analysis; assay type: ADME, organism-based; details: in vivo
[11] = Toxicity in female BALB/c nu/nu mouse implanted with mouse BaF3 cells harboring 19del/T790M/C797S mutant assessed as body weight loss at 20 mg/kg, po administered once daily for 9 days; assay type: organism-based; details: in vivo, 216 h, time 9 day
[12] = Cmax in male SPF Sprague-Dawley rat at 2 mg/kg, iv measured after 24 hrs by LC-MS/MS analysis; assay type: ADME, organism-based; details: in vivo
[13] = AUC (0 to infinity) in male SPF Sprague-Dawley rat at 2 mg/kg, iv measured after 24 hrs by LC-MS/MS analysis; assay type: ADME, organism-based; details: in vivo
[14] = Toxicity in female BALB/c nu/nu mouse implanted with mouse BaF3 cells harboring 19del/T790M/C797S mutant assessed as mortality at 20 mg/kg, po administered once daily for 9 days; assay type: organism-based; details: in vivo, 216 h, time 9 day
[15] = Induction of apoptosis in mouse BaF3 cells harboring EGFR 19del/T790M/C797S mutant assessed as early apoptotic cells at 1000 nM incubated for 48 hrs by Annexin V-FITC/PI staining based flow cytometric analysis (reference value: 0.46 %); assay type: functional
[16] = Induction of apoptosis in mouse BaF3 cells harboring EGFR 19del/T790M/C797S mutant assessed as late apoptotic cells at 30 nM incubated for 48 hrs by Annexin V-FITC/PI staining based flow cytometric analysis (reference value: 2.29 %); assay type: functional
[17] = system: BaF3; assay: Induction of apoptosis in mouse BaF3 cells harboring EGFR 19del/T790M/C797S mutant assessed as caspase 3 cleavage incubated for 48 hrs by Western blot analysis; assay type: functional, cell-based; details: dose 30-1000 nM
[18] = MRT (0 to t) in male SPF Sprague-Dawley rat at 2 mg/kg, iv measured after 24 hrs by LC-MS/MS analysis; assay type: ADME, organism-based; details: in vivo
[19] = Induction of apoptosis in mouse BaF3 cells harboring EGFR 19del/T790M/C797S mutant assessed as late apoptotic cells at 300 nM incubated for 48 hrs by Annexin V-FITC/PI staining based flow cytometric analysis (reference value: 2.29 %); assay type: functional
[20] = Half-life in male SPF Sprague-Dawley rat at 2 mg/kg, iv measured after 24 hrs by LC-MS/MS analysis; assay type: ADME, organism-based; details: in vivo
[21] = Tmax in male SPF Sprague-Dawley rat at 10 mg/kg, po measured after 24 hrs by LC-MS/MS analysis; assay type: ADME, organism-based; details: in vivo
[22] = Antiproliferative activity against mouse BaF3 cells assessed as inhibition of cell proliferation incubated for 72 hrs by CCK-8 assay; assay type: toxicity, cell-based
[23] = Induction of apoptosis in mouse BaF3 cells harboring EGFR 19del/T790M/C797S mutant assessed as early apoptotic cells at 30 nM incubated for 48 hrs by Annexin V-FITC/PI staining based flow cytometric analysis (reference value: 0.46 %); assay type: functional
[24] = system: BaF3; assay: cells; details: Mus musculus, BaF3, 72 h; remark: listed apart in the source
[25] = Tmax in male SPF Sprague-Dawley rat at 2 mg/kg, iv measured after 24 hrs by LC-MS/MS analysis; assay type: ADME, organism-based; details: in vivo
[26] = molecular target: Epidermal growth factor receptor (Mus musculus) (UniProt Q01279); assay: Inhibition of EGFR phosphorylation in mouse BaF3 cells harboring EGFR 19del/T790M/C797S mutant preincubated for 2 hrs followed by EGF stimulation and measured after 15 mins by Western blot analysis; assay type: cell-based; details: dose 1-1000 nM, time 135.0 min
[27] = Oral bioavailability in male SPF Sprague-Dawley rat at 10 mg/kg measured after 24 hrs by LC-MS/MS analysis; assay type: ADME, organism-based; details: in vivo
[28] = cells; details: Homo sapiens, PC9-OR, 72 h
[29] = molecular target: Epidermal growth factor receptor (Mus musculus) (UniProt Q01279); assay: Inhibition of EGFR phosphorylation in mouse BaF3 cells harboring EGFR L858R/T790M/C797S mutant preincubated for 2 hrs followed by EGF stimulation and measured after 15 mins by Western blot analysis; assay type: cell-based; details: dose 1-1000 nM, time 135.0 min
[30] = AUC (0 to infinity) in male SPF Sprague-Dawley rat at 10 mg/kg, po measured after 24 hrs by LC-MS/MS analysis; assay type: ADME, organism-based; details: in vivo
[31] = Induction of apoptosis in mouse BaF3 cells harboring EGFR 19del/T790M/C797S mutant assessed as early apoptotic cells at 300 nM incubated for 48 hrs by Annexin V-FITC/PI staining based flow cytometric analysis (reference value: 0.46 %); assay type: functional
[32] = Cmax in male SPF Sprague-Dawley rat at 10 mg/kg, po measured after 24 hrs by LC-MS/MS analysis; assay type: ADME, organism-based; details: in vivo
[33] = AUC (0 to t) in male SPF Sprague-Dawley rat at 2 mg/kg, iv measured after 24 hrs by LC-MS/MS analysis; assay type: ADME, organism-based; details: in vivo
[34] = Induction of apoptosis in mouse BaF3 cells harboring EGFR 19del/T790M/C797S mutant assessed as late apoptotic cells at 1000 nM incubated for 48 hrs by Annexin V-FITC/PI staining based flow cytometric analysis (reference value: 2.29 %); assay type: functional
[35] = Clearance in male SPF Sprague-Dawley rat at 2 mg/kg, iv measured after 24 hrs by LC-MS/MS analysis; assay type: ADME, organism-based; details: in vivo

Epidermal growth factor receptor (Mus musculus), sequence (Q01279 whole entry): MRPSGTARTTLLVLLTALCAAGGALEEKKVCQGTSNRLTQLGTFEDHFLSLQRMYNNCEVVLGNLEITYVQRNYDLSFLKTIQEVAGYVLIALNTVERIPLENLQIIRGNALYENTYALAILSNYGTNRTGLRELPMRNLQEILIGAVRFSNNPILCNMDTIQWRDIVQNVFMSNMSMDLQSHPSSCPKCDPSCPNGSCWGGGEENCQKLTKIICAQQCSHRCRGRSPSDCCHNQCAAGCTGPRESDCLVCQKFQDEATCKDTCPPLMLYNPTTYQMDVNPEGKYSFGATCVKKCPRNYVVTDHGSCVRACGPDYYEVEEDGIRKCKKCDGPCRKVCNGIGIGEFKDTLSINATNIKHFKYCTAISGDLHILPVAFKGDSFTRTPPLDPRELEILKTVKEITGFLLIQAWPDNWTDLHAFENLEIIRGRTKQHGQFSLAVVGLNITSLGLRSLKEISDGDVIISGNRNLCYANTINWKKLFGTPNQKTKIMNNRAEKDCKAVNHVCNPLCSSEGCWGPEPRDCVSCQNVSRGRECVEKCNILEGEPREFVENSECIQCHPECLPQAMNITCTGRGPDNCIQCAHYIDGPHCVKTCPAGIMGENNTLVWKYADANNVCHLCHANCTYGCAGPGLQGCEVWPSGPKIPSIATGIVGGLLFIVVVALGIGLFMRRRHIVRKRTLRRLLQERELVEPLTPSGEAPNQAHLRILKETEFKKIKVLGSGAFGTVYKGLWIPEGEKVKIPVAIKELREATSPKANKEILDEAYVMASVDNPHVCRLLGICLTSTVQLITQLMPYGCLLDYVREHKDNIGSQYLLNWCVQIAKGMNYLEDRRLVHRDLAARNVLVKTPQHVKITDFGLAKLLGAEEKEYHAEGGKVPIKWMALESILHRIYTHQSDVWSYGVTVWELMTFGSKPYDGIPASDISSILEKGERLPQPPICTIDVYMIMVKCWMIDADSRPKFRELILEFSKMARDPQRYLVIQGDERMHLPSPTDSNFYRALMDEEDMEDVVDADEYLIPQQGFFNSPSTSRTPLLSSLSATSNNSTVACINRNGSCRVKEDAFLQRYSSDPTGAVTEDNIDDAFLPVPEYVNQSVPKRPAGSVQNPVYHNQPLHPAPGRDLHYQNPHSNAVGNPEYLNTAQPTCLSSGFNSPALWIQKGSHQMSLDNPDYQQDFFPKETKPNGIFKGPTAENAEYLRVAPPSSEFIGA

COc1cc(N2CCOCC2)c2cc1Nc1ncc(C)c(n1)Nc1ccc(cc1P(C)(C)=O)OCCCn1cc-2cn1
IC50 [1]: 41 nM
Activity [2]: 5.98%
inhibition in vivo at 20 mg/kg [3]: 65.4%
half-life [4]: 4.32 h
Activity [5]: 3.44%
inhibition [6]: Dose-Dependent Effect
inhibition [7]: Dose-Dependent Effect
IC50 [8]: 246 nM
MRT last at 24 h [9]: 5.86 h
AUC(0-t) at 24 h [10]: 18000 ng·h/mL
Activity [11]: Non-Toxic
Cmax [12]: 2150 ng/mL
AUC(0-inf) [13]: 7900 ng·h/mL
Activity [14]: Non-Toxic
Activity [15]: 71.63%
Activity [16]: 1.64%
Activity [17]: Dose-Dependent Effect
MRT last at 24 h [18]: 3.89 h
Activity [19]: 16.34%
half-life [20]: 5.54 h
Tmax [21]: 1.67 h
IC50 at 72 h [22]: 2100 nM
Activity [23]: 2.26%
IC50 [24]: 52 nM
Tmax [25]: 4.98 min
inhibition [26]: Dose-Dependent Effect
bioavailability [27]: 47%
IC50 [28]: 56 nM
inhibition [29]: Dose-Dependent Effect
AUC(0-inf) [30]: 18500 ng·h/mL
Activity [31]: 34.23%
Cmax [32]: 1820 ng/mL
AUC(0-t) at 24 h [33]: 7630 ng·h/mL
Activity [34]: 17.31%
clearance [35]: 4.27 mL/min/kg

Reference: ChEMBL document CHEMBL6127132, “Design, Synthesis, and Biological Evaluation of Novel Diaminopyrimidine Macrocycles as Fourth Generation Reversible EGFR Inhibitors That Overcome Clinical Resistance to Osimertinib Mediated by C797S Mutation” (J Med Chem, 2024)
